Experimental data from ChEMBL document CHEMBL4725353, “Discovery of Pyrido[2,3-b]indole Derivatives with Gram-Negative Activity Targeting Both DNA Gyrase and Topoisomerase IV” (J Med Chem, 2020).
Values after ≈ are worked out from the molar mass of the structure shown.

Key:
[1] = system: Escherichia coli; experiment: microbe, parasite or virus in culture; settings: ATCC 25922
Description: Antibacterial activity against Escherichia coli ATCC 25922 assessed as reduction in microbial growth preincubated for 20 to 24 hrs followed by subculture in absence of compound and measured on day 4 CLSI based broth microdilution susceptibility method

[2] = physchem; settings: PBS, pH 6.5
Description: Solubility of compound in PBS at pH 6.5 incubated for over night by HPLC-UV based lyophilization solubility assay

[3] = system: Escherichia coli; experiment: microbe, parasite or virus in culture; settings: ATCC 29213
Description: Antibacterial activity against Escherichia coli ATCC 29213 assessed as reduction in microbial growth preincubated for 20 to 24 hrs followed by subculture in absence of compound and measured on day 4 CLSI based broth microdilution susceptibility method

[4] = in vitro; settings: mouse, liver microsomes
Description: Intrinsic clearance in mouse liver microsomes preincubated for 10 mins followed by NADPH regenerating system addition and measured up to 30 mins by LC/MS-MS analysis

[5] = Distribution coefficient between octanol and buffer, log D of the compound in pH 7.4 buffer by CAMDIS assay; type: physicochemical
[6] = physchem
Description: Ionization constant (acid), pKa of the compound by photometric titration assay

Row | SMILES | MIC [1] [µg/mL] | solubility [2] [µg/mL] | MIC [3] [µg/mL] | CLint scaled at 0.5 h [4] [mL/min/kg] | logD [5] | pKa [6]
1 | CCNc1cc(F)cc2c1[nH]c1ncc(-c3cncc(C#N)c3)c(-n3nc(C(F)F)c4c3CNC4)c12 | 2 (≈ 4.09 µM) | < 1 | – | – | – | –
2 | CCNc1cc(F)cc2c1[nH]c1ncc(-c3cnc(C)nc3)c(-n3ccc(C(F)(F)F)n3)c12 | 0.5 (≈ 1.1 µM) | – | < 0.016 | – | – | –
3 | CCNc1cc(F)cc2c1[nH]c1ncc(-c3cnc(N4CCOCC4)nc3)c(-n3ccc(C(F)(F)F)n3)c12 | 1 (≈ 1.9 µM) | < 1 | < 0.016 | 24.2 | – | –
4 | CCNc1cc(F)cc2c1[nH]c1ncc(-c3cncc(C(=O)NC)c3)c(-n3ccc(C(F)(F)F)n3)c12 | 0.5 (≈ 1.01 µM) | – | < 0.25 | – | 3.42 | –
5 | CCNc1cc(F)cc2c1[nH]c1ncc(-c3cncc(Cc4ncco4)c3)c(-n3ccc(C(F)(F)F)n3)c12 | 0.71 (≈ 1.36 µM) | – | < 0.056 | – | 3.66 | –
6 | CCNc1cc(F)cc2c1[nH]c1ncc(-c3cncc(C#N)c3)c(-n3ncc4c3CNCC4)c12 | 2 (≈ 4.42 µM) | – | – | 20.2 | – | –
7 | CCNc1cc(F)cc2c1[nH]c1ncc(-c3cnc4c(c3)c(=O)c(C(=O)O)cn4C)c(-n3ccc(C(F)(F)F)n3)c12 | 1 (≈ 1.77 µM) | – | < 0.125 | – | 2.54 | –
8 | CCNc1cc(F)cc2c1[nH]c1ncc(-c3cncc(C#N)c3)c(-c3nc(C(F)(F)F)cs3)c12 | 0.5 (≈ 1.04 µM) | < 1 | < 0.016 | – | – | –
9 | CCNc1cc(F)cc2c1[nH]c1ncc(-c3cnc(C(C)(C)O)nc3)c(-n3ccc(C(F)(F)F)n3)c12 | 1 (≈ 2 µM) | < 1 | < 0.25 | 58.7 | – | –
10 | CCNc1cc(F)cc2c1[nH]c1ncc(-c3cncc(C#N)c3)c(-n3ccc(C)n3)c12 | 2 (≈ 4.86 µM) | < 1 | < 0.25 | – | – | –
11 | CCNc1cc(F)cc2c1[nH]c1ncc(-c3cncc(C(=O)NO)c3)c(-n3ccc(C(F)(F)F)n3)c12 | 2 (≈ 4 µM) | – | < 0.125 | – | 3.05 | –
12 | CCNc1cc(F)cc2c1[nH]c1ncc(-c3cncc(N4CCNCC4)c3)c(-n3ccc(C(F)(F)F)n3)c12 | 8 (≈ 15.3 µM) | – | 0.5 (≈ 0.953 µM) | – | 2.8 | –
13 | CCNc1cc(F)cc2c1[nH]c1ncc(-c3cnc(C(N)=O)nc3)c(-n3ccc(C(F)(F)F)n3)c12 | < 0.25 | < 0.2 | < 0.25 | 55.5 | – | –
14 | CCNc1cc(F)cc2c1[nH]c1ncc(-c3cnc(NC4CNC4)nc3)c(-n3ccc(C(F)(F)F)n3)c12 | 4 (≈ 7.82 µM) | – | < 0.25 | – | – | 9.35
15 | CCNc1cc(F)cc2c1[nH]c1ncc(-c3cnc(OC)nc3)c(-n3ccc(C(F)(F)F)n3)c12 | 0.5 (≈ 1.06 µM) | < 1 | < 0.016 | 20.2 | – | –
16 | CCNc1cc(F)cc2c1[nH]c1ncc(-c3cncc(C#N)c3)c(-n3ccc(N)n3)c12 | 8 (≈ 19.4 µM) | – | 0.125 (≈ 0.303 µM) | – | – | 2.02
17 | CCNc1cc(F)cc2c1[nH]c1ncc(-c3cncc(C#N)c3)c(-n3ccc(CC)n3)c12 | 1 (≈ 2.35 µM) | < 0.3 | < 0.25 | – | – | –
18 | CCNc1cc(F)cc2c1[nH]c1ncc(-c3cncc(C#N)c3)c(-n3nc(C(F)(F)F)cc3C)c12 | 8 (≈ 16.7 µM) | – | – | – | – | –
19 | CCNc1cc(F)cc2c1[nH]c1ncc(-c3cnc(OCC)nc3)c(-n3ccc(C(F)(F)F)n3)c12 | 2 (≈ 4.12 µM) | < 0.3 | < 0.016 | 37 | – | –

Row | SMILES | MIC [1] [µg/mL] | solubility [2] [µg/mL] | MIC [3] [µg/mL] | CLint scaled at 0.5 h [4] [mL/min/kg] | logD [5] | pKa [6]
20 | CCNc1cc(F)cc2c1[nH]c1ncc(-c3cncc(C#N)c3)c(-n3ccc(C(C)C)n3)c12 | > 16 | < 0.7 | < 0.25 | – | – | –
21 | CCNc1cc(F)cc2c1[nH]c1ncc(-c3cncc(C#N)c3)c(-n3cc(C(=O)OCC)c(C(F)(F)F)n3)c12 | 2 (≈ 3.72 µM) | – | – | – | – | –
22 | CCNc1cc(F)cc2c1[nH]c1ncc(-c3cnc(NC)nc3)c(-n3ccc(C(F)(F)F)n3)c12 | 0.25 (≈ 0.531 µM) | < 1 | < 0.016 | 53.1 | – | –
23 | CCNc1cc(F)cc2c1[nH]c1ncc(-c3cncc(C#N)c3)c(-n3ccc(C(F)F)n3)c12 | 1 (≈ 2.24 µM) | < 1 | < 0.25 | – | – | –
24 | CCNc1cc(F)cc2c1[nH]c1ncc(-c3cncc(CC(N)=O)c3)c(-n3ccc(C(F)(F)F)n3)c12 | 1 (≈ 2.01 µM) | – | < 0.125 | – | 3.1 | –
25 | CCNc1cc(F)cc2c1[nH]c1ncc(-c3cncc(C#N)c3)c(-n3cc(C(=O)O)c(C(F)(F)F)n3)c12 | > 16 | – | – | – | – | –
26 | CNc1cc(F)cc2c1[nH]c1ncc(-c3cnc(C4(C(=O)O)CC4)nc3)c(-n3ccc(C(F)(F)F)n3)c12 | 0.75 (≈ 1.47 µM) | 148 (≈ 289 µM) | < 0.016 | 22.9 | – | –
27 | CCNc1cc(F)cc2c1[nH]c1ncc(-c3cnc(C4(C(=O)O)CC4)nc3)c(-n3ccc(C(F)(F)F)n3)c12 | 0.375 (≈ 0.714 µM) | 67 (≈ 128 µM) | < 0.016 | 43.8 | – | –
28 | CCNc1cc(F)cc2c1[nH]c1ncc(-c3cncc(C#N)c3)c(-n3cc(CO)c(C(F)(F)F)n3)c12 | 4 (≈ 8.07 µM) | – | – | – | – | –
29 | CCNc1cc(F)cc2c1[nH]c1ncc(-c3cncc(C#N)c3)c(-n3nc(C(F)(F)F)cc3CO)c12 | > 16 | – | – | – | – | –
30 | CCNc1cc(F)cc2c1[nH]c1ncc(-c3cnc(C(=O)O)nc3)c(-n3ccc(C(F)(F)F)n3)c12 | 16 (≈ 33 µM) | – | 4 (≈ 8.24 µM) | – | – | –
31 | CCNc1cc(F)cc2c1[nH]c1ncc(-c3cncc(C#N)c3)c(-c3cccc(C(F)(F)F)c3)c12 | > 16 | – | 0.063 (≈ 0.133 µM) | – | – | –
32 | CCNc1cc(F)cc2c1[nH]c1ncc(-c3cncc(C#N)c3)c(-n3ccc(C(=O)O)n3)c12 | > 16 | – | > 16 | – | – | –
33 | CCNc1cc(F)cc2c1[nH]c1ncc(-c3cncc(C#N)c3)c(-n3cc(C(N)=O)c(C(F)(F)F)n3)c12 | > 16 | – | – | – | – | –
34 | CCNc1cc(F)cc2c1[nH]c1ncc(-c3cnc(OC4CCNCC4)nc3)c(-n3ccc(C(F)(F)F)n3)c12 | 1 (≈ 1.85 µM) | – | 0.63 (≈ 1.17 µM) | – | – | 9.06
35 | CCNc1cc(F)cc2c1[nH]c1ncc(-c3cnc(N4CCNCC4)nc3)c(-n3ccc(C(F)(F)F)n3)c12 | 1 (≈ 1.9 µM) | < 1 | 0.31 (≈ 0.59 µM) | 61.4 | – | 8.6
36 | CCNc1cc(F)cc2c1[nH]c1ncc(-c3cnc(CC(=O)O)nc3)c(-n3ccc(C(F)(F)F)n3)c12 | 1 (≈ 2 µM) | 9 (≈ 18 µM) | < 0.016 | 44 | – | –
37 | CCNc1cc(F)cc2c1[nH]c1ncc(-c3cncc(Cc4ncc[nH]4)c3)c(-n3ccc(C(F)(F)F)n3)c12 | 2.83 (≈ 5.44 µM) | – | < 0.057 | – | 3.62 | –
38 | CCNc1cc(F)cc2c1[nH]c1ncc(-c3cncc(C(=O)NOC)c3)c(-n3ccc(C(F)(F)F)n3)c12 | 0.5 (≈ 0.974 µM) | – | < 0.125 | – | 3.41 | –

Row | SMILES | MIC [1] [µg/mL] | solubility [2] [µg/mL] | MIC [3] [µg/mL] | CLint scaled at 0.5 h [4] [mL/min/kg] | logD [5] | pKa [6]
39 | CCNc1cc(F)cc2c1[nH]c1ncc(-c3cncc(C#N)c3)c(-n3cc(C(F)(F)F)cn3)c12 | 1 (≈ 2.15 µM) | < 1 | < 0.016 | – | – | –
40 | CCNc1cc(F)cc2c1[nH]c1ncc(-c3cnc(NC4CCNC4)nc3)c(-n3ccc(C(F)(F)F)n3)c12 (stereo not drawn) | 2 (≈ 3.81 µM) | 8.3 (≈ 15.8 µM) | 0.25 (≈ 0.476 µM) | 60.1 | – | 9.55
41 | CCNc1cc(F)cc2c1[nH]c1ncc(-c3cnc(OC4CNC4)nc3)c(-n3ccc(C(F)(F)F)n3)c12 | 1 (≈ 1.95 µM) | – | 0.63 (≈ 1.23 µM) | – | – | 8.62
42 | CCNc1cc(F)cc2c1[nH]c1ncc(-c3cnc(NCC4(C(=O)O)CC4)nc3)c(-n3ccc(C(F)(F)F)n3)c12 | 4 (≈ 7.21 µM) | 133 (≈ 240 µM) | < 0.016 | – | – | –
43 | CCNc1cc(F)cc2c1[nH]c1ncc(-c3cncc(C#N)c3)c(-n3cnc(C(F)(F)F)c3)c12 | > 16 | – | 0.25 (≈ 0.537 µM) | – | – | –
44 | CCNc1cc(F)cc2c1[nH]c1ncc(-c3cnc(NC4CCNCC4)nc3)c(-n3ccc(C(F)(F)F)n3)c12 | 1 (≈ 1.85 µM) | 7.6 (≈ 14.1 µM) | 0.63 (≈ 1.17 µM) | 57.9 | – | 9.52
45 | CCNc1cc(F)cc2c1[nH]c1ncc(-c3cncc(N4CCOCC4)c3)c(-n3ccc(C(F)(F)F)n3)c12 | 1 (≈ 1.9 µM) | – | < 0.25 | – | 3.64 | –
46 | CCNc1cc(F)cc2c1[nH]c1ncc(-c3cnc(C(=O)NC)nc3)c(-n3ccc(C(F)(F)F)n3)c12 | < 0.25 | – | < 0.25 | – | – | –
47 | CCNc1cc(F)cc2c1[nH]c1ncc(-c3cncc(C#N)c3)c(-n3cc4c(n3)CNC4)c12 | 4 (≈ 9.12 µM) | – | – | – | – | –
48 | CCNc1cc(F)cc2c1[nH]c1ncc(-c3cnc(OCC(C)(C)C(=O)O)nc3)c(-n3ccc(C(F)(F)F)n3)c12 | 2 (≈ 3.59 µM) | < 1 | < 0.016 | 43.5 | – | –
49 | CCNc1cc(F)cc2c1[nH]c1ncc(-c3cnc(N)nc3)c(-n3ccc(C(F)(F)F)n3)c12 | 1 (≈ 2.19 µM) | 7.6 (≈ 16.7 µM) | 0.63 (≈ 1.38 µM) | 25.9 | – | 4.39
50 | CCNc1cc(F)cc2c1[nH]c1ncc(-c3cnc([C@H](C)O)nc3)c(-n3ccc(C(F)(F)F)n3)c12 | 0.5 (≈ 1.03 µM) | < 0.2 | < 0.25 | 52.8 | – | –
51 | CCNc1cc(F)cc2c1[nH]c1ncc(-c3cnc([C@@H](C)O)nc3)c(-n3ccc(C(F)(F)F)n3)c12 | 0.5 (≈ 1.03 µM) | < 1 | < 0.25 | 57.2 | – | –
52 | CCNc1cc(F)cc2c1[nH]c1ncc(-c3cncc(C#N)c3)c(-n3ccc(C(C)(C)C)n3)c12 | > 16 | < 0.3 | < 0.25 | – | – | –
53 | CCNc1cc(F)cc2c1[nH]c1ncc(-c3cncc(C#N)c3)c(-n3ccc(C#N)n3)c12 | 0.125 (≈ 0.296 µM) | < 1 | < 0.016 | – | – | –
54 | CCNc1cc(F)cc2c1[nH]c1ncc(-c3cncc(C#N)c3)c(-n3ncc4c3CCNC4)c12 | 4 (≈ 8.84 µM) | 200 (≈ 442 µM) | – | 52.1 | – | –
55 | CCNc1cc(F)cc2c1[nH]c1ncc(-c3cncc(C(=N)NC)c3)c(-n3ccc(C(F)(F)F)n3)c12 | 8 (≈ 16.1 µM) | – | 0.5 (≈ 1.01 µM) | – | 2.28 | –
56 | CCNc1cc(F)cc2c1[nH]c1ncc(-c3cncc(Cc4n[nH]c(=O)o4)c3)c(-n3ccc(C(F)(F)F)n3)c12 | 0.73 (≈ 1.36 µM) | – | < 0.056 | – | 3.38 | –
57 | CCNc1cc(F)cc2c1[nH]c1ncc(-c3cncc(C#N)c3)c(-n3ccc(CN)n3)c12 | 16 (≈ 37.5 µM) | – | 2 (≈ 4.69 µM) | – | – | –
